Data reported in ChEMBL document CHEMBL1132041, “Inhibition of human telomerase by PNA-cationic peptide conjugates” (Bioorg Med Chem Lett, 1999).
pIC50: −log10 of the molar value.

Target: Telomerase reverse transcriptase (Homo sapiens, UniProt O14746)
Assay: Inhibitory activity against human telomerase

Chain of Telomerase reverse transcriptase (O14746 whole entry): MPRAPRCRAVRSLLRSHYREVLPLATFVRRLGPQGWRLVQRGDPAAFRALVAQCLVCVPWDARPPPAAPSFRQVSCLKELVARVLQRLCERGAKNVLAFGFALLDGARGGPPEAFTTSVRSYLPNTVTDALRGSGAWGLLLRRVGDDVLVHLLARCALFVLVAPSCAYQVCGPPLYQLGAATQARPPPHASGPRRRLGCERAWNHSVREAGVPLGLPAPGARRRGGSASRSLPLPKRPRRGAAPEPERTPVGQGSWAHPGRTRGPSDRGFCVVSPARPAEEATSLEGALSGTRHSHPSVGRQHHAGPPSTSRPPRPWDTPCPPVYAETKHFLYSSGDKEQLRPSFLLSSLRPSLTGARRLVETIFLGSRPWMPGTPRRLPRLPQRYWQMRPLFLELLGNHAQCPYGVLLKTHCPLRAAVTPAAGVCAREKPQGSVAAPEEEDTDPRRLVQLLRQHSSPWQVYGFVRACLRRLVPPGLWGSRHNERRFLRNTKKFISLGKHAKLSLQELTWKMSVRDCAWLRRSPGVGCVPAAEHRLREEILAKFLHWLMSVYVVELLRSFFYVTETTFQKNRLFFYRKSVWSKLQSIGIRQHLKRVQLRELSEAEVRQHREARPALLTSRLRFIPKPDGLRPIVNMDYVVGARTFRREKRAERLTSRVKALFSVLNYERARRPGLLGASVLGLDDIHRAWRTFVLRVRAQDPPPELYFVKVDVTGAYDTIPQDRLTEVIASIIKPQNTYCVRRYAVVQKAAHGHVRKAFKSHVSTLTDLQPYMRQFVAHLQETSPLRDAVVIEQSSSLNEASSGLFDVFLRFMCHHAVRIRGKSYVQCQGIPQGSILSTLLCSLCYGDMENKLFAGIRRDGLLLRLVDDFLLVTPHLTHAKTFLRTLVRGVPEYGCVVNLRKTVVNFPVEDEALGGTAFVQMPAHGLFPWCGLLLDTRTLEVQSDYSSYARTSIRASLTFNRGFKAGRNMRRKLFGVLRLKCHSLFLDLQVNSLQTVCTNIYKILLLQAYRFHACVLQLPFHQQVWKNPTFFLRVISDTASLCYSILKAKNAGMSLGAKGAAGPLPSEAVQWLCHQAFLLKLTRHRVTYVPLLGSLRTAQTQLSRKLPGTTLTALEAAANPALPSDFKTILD

SMILES | pIC50
Cc1cn([C@H]2C[C@H](OP(=O)(O)OC[C@H]3O[C@@H](n4cnc5c(N)ncnc54)C[C@@H]3OP(=O)(O)OC[C@H]3O[C@@H](N4C=NC5C(=O)N=C(N)N=C54)C[C@@H]3OP(=O)(O)OC[C@H]3O[C@@H](N4C=NC5C(=O)N=C(N)N=C54)C[C@@H]3OP(=O)(O)OC[C@H]3O[C@@H](N4C=NC5C(=O)N=C(NC(=O)O)N=C54)C[C@@H]3O)[C@@H](COP(=O)(O)ON)O2)c(=O)[nH]c1=O (some centres undefined) | 5.94
Cc1cn(C2CC(OP(=O)(O)OCC3OC(n4cnc5c(N)ncnc54)CC3OP(=O)(O)OCC3OC(n4cnc5c(=O)[nH]c(N)nc54)CC3OP(=O)(O)OCC3OC(n4cnc5c(=O)[nH]c(N)nc54)CC3OP(=O)(O)OCC3OC(n4cnc5c(=O)[nH]c(N)nc54)CC3O)C(COP(=O)(O)C(=O)[C@H](CS)NC(=O)[C@H](CCCCN)NC(=O)[C@H](CCCCN)NC(=O)[C@H](CCCCN)NC(=O)[C@H](CCCCN)NC(=O)[C@H](CCCCN)NC(=O)[C@H](C)N)O2)c(=O)[nH]c1=O (some centres undefined) | 6.54
Cc1cn(C2CC(OP(=O)(O)OCC3OC(n4cnc5c(N)ncnc54)CC3OP(=O)(O)OCC3OC(n4cnc5c(=O)[nH]c(N)nc54)CC3OP(=O)(O)OCC3OC(n4cnc5c(=O)[nH]c(N)nc54)CC3OP(=O)(O)OCC3OC(n4cnc5c(=O)[nH]c(N)nc54)CC3O)C(COP(=O)(O)C(=O)[C@H](CS)NC(=O)[C@H](CCCNC(=N)N)NC(=O)[C@H](CCCNC(=N)N)NC(=O)[C@H](CCCNC(=N)N)NC(=O)[C@H](CCCNC(=N)N)NC(=O)[C@H](CCCNC(=N)N)NC(=O)[C@H](C)N)O2)c(=O)[nH]c1=O (some centres undefined) | 6.85
Cc1cn(C2CC(OP(=O)(O)OCC3OC(n4cnc5c(N)ncnc54)CC3OP(=O)(O)OCC3OC(n4cnc5c(N)nc(N)nc54)CC3OP(=O)(O)OCC3OC(n4cnc5c(O)nc(N)nc54)CC3OP(=O)(O)OCC3OC(n4cnc5c(O)nc(N)nc54)CC3O)C(COP(=O)(O)C(=O)[C@H](CS)NC(=O)[C@H](CCCN)NC(=O)[C@H](CCCN)NC(=O)[C@H](CCCN)NC(=O)[C@H](CCCN)NC(=O)[C@H](CCCN)NC(=O)[C@H](C)N)O2)c(=O)[nH]c1=O (some centres undefined) | 6.35
